Test results reported in EP1923473B1, “Bis-diglycolamides (BISDGA) as new extractants for lanthanides [Ln(III)] and actinides [An(III)] from aqueous high-level wastes” (Universidad Autónoma de Madrid, priority 2006, dated 2008).

Legend:
[1] = Batch extraction from simulated HLLW from the PUREX process, gamma spectrometry; assay type: physicochemical; conditions: 0.1 mol/L in TPH/1-octanol (90:10)
Source text: (§1) The feed solution used for the extraction tests is a simulated solution of an HLLW from the PUREX process, the composition of which is shown in Table 4. Table 4: Composition of the simulated HLLW-PUREX solution used for the extraction tests
(§2) The composition of the HLLW corresponds to a burn-up of 33 GWd/tHM, the generated volume of HLLW being 5000 1/t of fuel. The feed was spiked with ^241Am, ^244Cm, ^252Cf and ^152Eu. Oxalic acid and N-(2-hydroxyethyl)ethylenediaminotriacetate (HEDTA) were also added before the extraction tests.
(§3) 500 µL of the aqueous and organic phases were spiked with 10 µL of a tracer solution containing 241Am, 244Cm, 252Cf and ^152Eu, and were equilibrated for 10 minutes while they were stirred vigorously in a vortex stirrer. After the separation of the phases by centrifugation, 200 µL aliquots of each phase were taken for the determination of the concentration of ^241Am and ^152Eu using a high-purity germanium spectrometer system (EG&G Ortec). The nuclides ^241Am, ^244Cm and ^252Cf were measured by alpha spectrometry with an α-Analyst device of the company Canberra-Packard GmbH, Germany.
(§4) The concentrations of the stable elements were determined by mass spectrometry with an inductively coupled plasma source (ICP-MS) in a DRC Elan 6100 device of Perkin Elmer Sciex. The aqueous phase was measured directly after the appropriate dilution. The organic phase was analyzed after having mineralized the organic matter by microwave acid digestion and subsequent dilution.
(§5) The distribution coefficients were calculated for each element according to section C).
(§6) A 0.1 mol/L solution of compound 4 in the "TPH/1-octanol (90:10)%vol" mixture was prepared. Extraction experiments were carried out with said simulated HLLW in a pure form and also adding oxalic acid and HEDTA to it. These complexing agents have shown to be effective in the DIAMEX process for the complexing of Mo, Zr (H2C2O4) and Pd (HEDTA).
(§7) Extraction experiments were carried out with said simulated HLLW in a pure form and also adding oxalic acid and HEDTA to it.

[2] = Batch extraction from simulated HLLW from the PUREX process; assay type: physicochemical; conditions: 0.1 mol/L in TPH/1-octanol (90:10)
Source text: as §1, §2, §3, §4, §5, §6, §7

[3] = Oxalic acid 0.2 mol/L, HEDTA 0.05 mol/L, TBP 0.5 mol/L
[4] = Oxalic acid 0.2 mol/L, HEDTA 0.05 mol/L, TBP No
[5] = Oxalic acid 0.3 mol/L, HEDTA 0.05 mol/L, TBP 0.5 mol/L
[6] = Oxalic acid 0.3 mol/L, HEDTA 0.05 mol/L, TBP No
[7] = Oxalic acid No, HEDTA No, TBP 0.5 mol/L
[8] = Oxalic acid No, HEDTA No, TBP No

Question: What does the source list for “2-Dioctylcarbamoylmethoxy-N-[3-[3-(2-dioctylcarbamoyl-methoxyacetylamino)propoxy]propyl]acetamide [Compound 18]”?
Answer: Distribution coefficients Am-241, γ [1, 3]: 70; Distribution coefficients Am-241, γ [1, 4]: 100; Distribution coefficients Am-241, γ [1, 5]: 61; Distribution coefficients Am-241, γ [1, 6]: 97; Distribution coefficients Am-241, γ [1, 7]: 65; Distribution coefficients Am-241, γ [1, 8]: 96; Distribution coefficients Ag [2, 3]: 0.19; Distribution coefficients Ba [2, 3]: 0.0008; Distribution coefficients Cd [2, 3]: 0.022; Distribution coefficients Ce [2, 3]: 20; Distribution coefficients Cf-252 [2, 3]: 666; Distribution coefficients Cm-244 [2, 3]: 95; Distribution coefficients Cs [2, 3]: 0.0005; Distribution coefficients Eu [2, 3]: 309; Distribution coefficients Eu-152 [2, 3]: 282; Distribution coefficients Gd [2, 3]: 140; Distribution coefficients La [2, 3]: 12; Distribution coefficients Mo [2, 3]: 0.15; Distribution coefficients Nd [2, 3]: 69; Distribution coefficients Pd [2, 3]: 0.05; Distribution coefficients Pr [2, 3]: 32; Distribution coefficients Rb [2, 3]: 0.008; Distribution coefficients Rh [2, 3]: 0.003; Distribution coefficients Ru [2, 3]: 0.22; Distribution coefficients Sm [2, 3]: 284; Distribution coefficients Y [2, 3]: 631; Distribution coefficients Zr [2, 3]: 0.18; Distribution coefficients Ag [2, 4]: 0.5; Distribution coefficients Ba [2, 4]: 0.0008; Distribution coefficients Cd [2, 4]: 0.032; Distribution coefficients Ce [2, 4]: 24; Distribution coefficients Cf-252 [2, 4]: 511; Distribution coefficients Cm-244 [2, 4]: 85; Distribution coefficients Cs [2, 4]: 0.0004; Distribution coefficients Eu [2, 4]: 341; Distribution coefficients Eu-152 [2, 4]: 523; Distribution coefficients Gd [2, 4]: 197; Distribution coefficients La [2, 4]: 12; Distribution coefficients Mo [2, 4]: 0.21; Distribution coefficients Nd [2, 4]: 101; Distribution coefficients Pd [2, 4]: 0.10; Distribution coefficients Pr [2, 4]: 44; Distribution coefficients Rb [2, 4]: 0.008; Distribution coefficients Rh [2, 4]: 0.004; Distribution coefficients Ru [2, 4]: 0.21; Distribution coefficients Sm [2, 4]: 432; Distribution coefficients Y [2, 4]: 618; Distribution coefficients Zr [2, 4]: 0.51; Distribution coefficients Ag [2, 5]: 0.08; Distribution coefficients Ba [2, 5]: 0.0008; Distribution coefficients Cd [2, 5]: 0.024; Distribution coefficients Ce [2, 5]: 22; Distribution coefficients Cf-252 [2, 5]: 1353; Distribution coefficients Cm-244 [2, 5]: 164; Distribution coefficients Cs [2, 5]: 0.0004; Distribution coefficients Eu [2, 5]: 335; Distribution coefficients Eu-152 [2, 5]: 330; Distribution coefficients Gd [2, 5]: 146; Distribution coefficients La [2, 5]: 12; Distribution coefficients Mo [2, 5]: 0.19; Distribution coefficients Nd [2, 5]: 78; Distribution coefficients Pd [2, 5]: 0.02; Distribution coefficients Pr [2, 5]: 35; Distribution coefficients Rb [2, 5]: 0.008; Distribution coefficients Rh [2, 5]: 0.003; Distribution coefficients Ru [2, 5]: 0.23; Distribution coefficients Sm [2, 5]: 363; Distribution coefficients Y [2, 5]: 811; Distribution coefficients Zr [2, 5]: 0.06; Distribution coefficients Ag [2, 6]: 0.14; Distribution coefficients Ba [2, 6]: 0.0008; Distribution coefficients Cd [2, 6]: 0.034; Distribution coefficients Ce [2, 6]: 24; Distribution coefficients Cf-252 [2, 6]: 1451; Distribution coefficients Cm-244 [2, 6]: 163; Distribution coefficients Cs [2, 6]: 0.0006; Distribution coefficients Eu [2, 6]: 275; Distribution coefficients Eu-152 [2, 6]: 436; Distribution coefficients Gd [2, 6]: 196; Distribution coefficients La [2, 6]: 12; Distribution coefficients Mo [2, 6]: 0.19; Distribution coefficients Nd [2, 6]: 97; Distribution coefficients Pd [2, 6]: 0.04; Distribution coefficients Pr [2, 6]: 43; Distribution coefficients Rb [2, 6]: 0.008; Distribution coefficients Rh [2, 6]: 0.003; Distribution coefficients Ru [2, 6]: 0.18; Distribution coefficients Sm [2, 6]: 331; Distribution coefficients Y [2, 6]: 455; Distribution coefficients Zr [2, 6]: 0.13; Distribution coefficients Ag [2, 7]: 6.8; Distribution coefficients Ba [2, 7]: 0.0008; Distribution coefficients Cd [2, 7]: 0.015; Distribution coefficients Ce [2, 7]: 14; Distribution coefficients Cf-252 [2, 7]: 605; Distribution coefficients Cm-244 [2, 7]: 102; Distribution coefficients Cs [2, 7]: 0.0004; Distribution coefficients Eu [2, 7]: 299; Distribution coefficients Eu-152 [2, 7]: 393; Distribution coefficients Gd [2, 7]: 126; Distribution coefficients La [2, 7]: 8.5; Distribution coefficients Mo [2, 7]: 0.06; Distribution coefficients Nd [2, 7]: 49; Distribution coefficients Pd [2, 7]: 2.2; Distribution coefficients Pr [2, 7]: 24; Distribution coefficients Rb [2, 7]: 0.008; Distribution coefficients Rh [2, 7]: 0.003; Distribution coefficients Ru [2, 7]: 0.28; Distribution coefficients Sm [2, 7]: 234; Distribution coefficients Y [2, 7]: 1119; Distribution coefficients Zr [2, 7]: 16.5; Distribution coefficients Ag [2, 8]: 5.8; Distribution coefficients Ba [2, 8]: 0.0008; Distribution coefficients Cd [2, 8]: 0.021; Distribution coefficients Ce [2, 8]: 17; Distribution coefficients Cf-252 [2, 8]: 1352; Distribution coefficients Cm-244 [2, 8]: 165; Distribution coefficients Cs [2, 8]: 0.0004; Distribution coefficients Eu [2, 8]: 267; Distribution coefficients Eu-152 [2, 8]: 499; Distribution coefficients Gd [2, 8]: 160; Distribution coefficients La [2, 8]: 10; Distribution coefficients Mo [2, 8]: 0.09; Distribution coefficients Nd [2, 8]: 74; Distribution coefficients Pd [2, 8]: 1.7; Distribution coefficients Pr [2, 8]: 32; Distribution coefficients Rb [2, 8]: 0.008; Distribution coefficients Rh [2, 8]: 0.004; Distribution coefficients Ru [2, 8]: 0.24; Distribution coefficients Sm [2, 8]: 266; Distribution coefficients Y [2, 8]: 574; Distribution coefficients Zr [2, 8]: 9.1
